Data: the PolyMetriX glass transition set
± gives the standard deviation of the reports.

glass transition temperature [°C] | SMILES
50.00 | *CCOCCOC(=O)c1ccc(-c2ccc(C(=O)O*)cc2)cc1 (repeat unit)
162.00 | *Oc1ccc(C(C)(C)c2ccc(C(C)(C)c3ccc(Oc4ccc(C(=O)Nc5ccc(Cc6ccc(NC(=O)c7ccc(*)cc7)cc6)cc5)cc4)cc3)cc2)cc1 (repeat unit)
155.80 | *Oc1ccc(OC(=O)c2ccc(C(*)=O)cc2)cc1-c1cccc(C(F)(F)F)c1 (repeat unit)
110.00 | *CC(O)COC(=O)C1CCC(C(=O)OCC(O)COc2ccc(C3(c4ccc(O*)cc4)c4ccccc4-c4ccccc43)cc2)CC1 (repeat unit)
213.00 | *c1ccc(Oc2ccc(/C=C/c3ccc(Oc4ccc(-c5nnc(*)o5)cc4)c4ccccc34)cc2)cc1 (repeat unit)
117.00 | *OC(COC(=O)c1ccc(C(*)=O)c2ccccc12)COc1ccc(/N=N/c2ccc(C#N)cc2)cc1 (repeat unit)
227.50 | *c1cccc(N2C(=O)c3cccc(Oc4ccc(C(C)(C)c5ccc(Oc6cccc7c6C(=O)N(*)C7=O)cc5)cc4)c3C2=O)c1 (repeat unit)
180.00 | *c1ccc(Oc2ccc(C(C)(C)c3ccc(Oc4ccc(-c5nnc(*)o5)cc4)cc3)cc2)cc1 (repeat unit)
24.90 | *CCCCOc1ccc(CCc2ccc(O*)cc2C)cc1 (repeat unit)
210.00 | *Oc1ccc(C(c2ccccc2)(c2ccccc2)c2ccc(OC(=O)c3ccc(C(*)=O)cc3)cc2)cc1 (repeat unit)
58.00 | *CC(O)CN(C)S(=O)(=O)c1cccc(S(=O)(=O)N(C)CC(O)COc2ccc(-c3ccc(O*)cc3)cc2)c1 (repeat unit)
235.00 | *c1ccc(Oc2ccc(Oc3ccc(-c4cnc5ccc(-c6ccc7nc(*)cnc7c6)cc5n4)cc3)cc2)cc1 (repeat unit)
198.00 | *CCCC(=O)Nc1ccc(Oc2ccc(NC(=O)CCCN3C(=O)c4ccc(C(=O)c5ccc6c(c5)C(=O)N(*)C6=O)cc4C3=O)cc2)cc1 (repeat unit)
173.00 | *Oc1ccc(C(C)(C)c2ccc(C(C)(C)c3ccc(Oc4ccc(C(=O)Nc5cccc(NC(=O)c6ccc(*)cc6)c5)cc4)cc3)cc2)cc1 (repeat unit)
135.00 | */C=C/c1ccc(*)c(-c2ccc(OCC(CC)CCCC)c3ccccc23)c1 (repeat unit)
222.00 | *C(=O)Nc1ccc(Cc2ccc(NC(=O)c3ccc(N4C(=O)c5ccc(*)cc5C4=O)cc3)cc2)cc1 (repeat unit)
98.00 | *CC(*)(C)C(=O)Oc1ccc(C(=O)Oc2ccc(C)cc2)cc1 (repeat unit)
223.00 | *Oc1ccc(S(=O)(=O)c2ccc(Oc3ccc(C(c4ccc(*)cc4)c4ccccc4C(=O)O)cc3)cc2)cc1 (repeat unit)
62.00 | *Oc1ccc(CC(NC(=O)CCc2ccc(OC(=O)CCCC(*)=O)cc2)C(=O)OCC(C)C)cc1 (repeat unit)
55.00 | *Oc1ccccc1C(=O)OC(=O)c1ccccc1OC(=O)CCCCC(*)=O (repeat unit)
133.00 | *OS(=O)(=O)c1cccc(C(=O)Oc2ccc(C(C)(C)c3ccc(*)cc3)cc2)c1 (repeat unit)
46.00 | *CC(*)(C)C(=O)OCCCCCCOc1ccc(C(=O)Oc2ccc(OC)cc2)cc1 (repeat unit)
167.00 | *c1ccc2c(c1)C(=O)N(c1ccc(Oc3ccc(N4C(=O)c5ccc(C(*)O[Si](C)(C)O[Si](C)(C)O[Si](C)(C)C)cc5C4=O)cc3)cc1)C2=O (repeat unit)
200.00 | *Oc1ccc(NC(=O)Nc2ccccc2CCc2ccc(NC(=O)Nc3ccc(*)cc3)cc2)cc1 (repeat unit)
68.00 | *Oc1ccc(OC(=O)c2cc(OCCCCOCC3CCCN3c3ccc([N+](=O)[O-])cc3)c(C(*)=O)cc2OCCCCOCC2CCCN2c2ccc([N+](=O)[O-])cc2)cc1 (repeat unit)
57.00 | *O[Si](*)(C)CCCOc1ccc(C(=O)Oc2ccc(C#N)cc2)cc1 (repeat unit)

Second part, the compound before the results:

SMILES | glass transition temperature [°C]
*CCCOC(=O)OCCCCCCOC(=O)OCCCN1C(=O)c2ccc(C(=O)c3ccc4c(c3)C(=O)N(*)C4=O)cc2C1=O (repeat unit) | 70.00
*CC(OO*)c1ccc(Br)cc1 (repeat unit) | 9.60
*CC(*)c1ccc(CCCCCCCCCCCCCCCCCC)cc1 (repeat unit) | 32.00
*OP(=O)(Oc1ccc(Br)cc1)OC(CCl)COc1ccc(S(=O)(=O)c2ccc(OCC(*)CCl)cc2)cc1 (repeat unit) | 58.00
*/C=C(/*)c1cccc[c]1[Ge]([CH3])([CH3])[CH3] (repeat unit) | 180.00
*c1ccc(Oc2ccc(C(C)(C)c3ccc(Oc4ccc(-c5nnc(*)c6c(-c7ccccc7)c(-c7ccc8ccccc8c7)c(-c7ccc8ccccc8c7)c(-c7ccccc7)c56)cc4)cc3)cc2)cc1 (repeat unit) | 290.00
*c1ccc(N(c2ccc(C#N)cc2)c2ccc(-n3c(=O)c4cc5c(=O)n(*)c(=O)c5cc4c3=O)cc2)cc1 (repeat unit) | 353.00
*Oc1cc(CCCCCC)cc(OC(=O)c2cccc(C(*)=O)c2)c1 (repeat unit) | 67.50
*O[Si](*)(C)CCCOc1ccc2c(c1)c1cc(-c3ccc4c(c3)c3ccccc3n4CC(CC)CCCC)ccc1n2CC(CC)CCCC (repeat unit) | 129.00
*O[Si](c1ccccc1)(c1ccccc1)c1cccc(*)c1 (repeat unit) | 62.00
*OC(=O)c1ccc(C(=O)OC2CC3CC(*)CC(C2)O3)cc1 (repeat unit) | 207.00
*CCCCCCCCCCC(=O)Nc1ccc(Cc2ccc(NC(=O)CCCCCCCCCCN3C(=O)c4ccc(C(=O)c5ccc6c(c5)C(=O)N(*)C6=O)cc4C3=O)cc2)cc1 (repeat unit) | 136.00
*Oc1ccc(C(c2ccc(Oc3c(F)c(F)c(C(=O)c4c(F)c(F)c(*)c(F)c4F)c(F)c3F)cc2)(C(F)(F)F)C(F)(F)F)cc1 (repeat unit) | 149.00
*CC(*)C1=NCCN1 (repeat unit) | -48.3
*c1ccc2c(c1)C(=O)N(c1cccc(Oc3ccc(N4C(=O)c5ccc(-c6c(-c7ccccc7)c(-c7ccccc7)c(-c7ccc(Oc8ccc(-c9c(-c%10ccccc%10)c(-c%10ccccc%10)c(*)c(-c%10ccccc%10)c9-c9ccccc9)cc8)cc7)c(-c7ccccc7)c6-c6ccccc6)cc5C4=O)cc3)c1)C2=O (repeat unit) | 309.00
*c1ccc(Oc2ccc(C(=O)c3cccc(C(=O)c4ccc(Oc5ccc(N6C(=O)c7ccc(Oc8ccc9c(c8)C(=O)N(*)C9=O)cc7C6=O)cc5C(F)(F)F)cc4)n3)cc2)c(C(F)(F)F)c1 (repeat unit) | 212.20
*OC(=O)CCCCCCCCC(=O)OC1COC2C(*)COC12 (repeat unit) | 3.00
*CC(*)c1c(F)c(F)c(OC)c(F)c1F (repeat unit) | 94.00
*C1(F)OC(C(F)(F)F)(C(F)(F)Cl)OC1(*)F (repeat unit) | 330.00
*c1ccc2c(c1)C(=O)N(c1cccc(Oc3ccc(S(=O)(=O)c4ccc(Oc5cccc(N6C(=O)c7ccc(C(*)(C(F)(F)F)C(F)(F)F)cc7C6=O)c5)cc4)cc3)c1)C2=O (repeat unit) | 209.50

SMILES | glass transition temperature [°C]
*CC(*)(C)C(=O)OCc1ccccc1 (repeat unit) [Poly(benzyl methacrylate)] | 54.00 ± 0.5
*CCCNC(=O)CNC(=O)C(NC(=O)C(Cc1ccccc1)NC(=O)CCCCCCCCC(=O)NC(Cc1ccccc1)C(=O)NC(C(=O)NCC(=O)NCCCOCCOCCO*)C(C)C)C(C)C (repeat unit) | 58.00
*CCCCC(=O)O* (repeat unit) | -66.00
*CC(*)OC(=O)c1cccc(Cl)c1 (repeat unit) | 61.8
*CCOCCOC(=O)CCCCCCCC(=O)O* (repeat unit) | -71.00
*CC(*)c1c(Cl)cccc1Cl (repeat unit) | 165.00
*/C=C/c1cc(OCC(CC)CCCC)c(*)cc1-c1ccc(F)c(C(F)(F)F)c1 (repeat unit) | 122.00
*Oc1ccc(C(c2ccc(OC(*)=O)cc2)(C(F)(F)Cl)C(F)(F)Cl)cc1 (repeat unit) | 183.50
*C1CC2CC1C(*)C2CCCCCC (repeat unit) | 252.00
*CCCCCCCCCCC(=O)Nc1ccc(Oc2ccc(NC(=O)CCCCCCCCCCN3C(=O)c4ccc(C(=O)c5ccc6c(c5)C(=O)N(*)C6=O)cc4C3=O)cc2)cc1 (repeat unit) | 132.00
*CC(F)(F)C(F)(F)C(F)(F)COC(=O)c1cccc(C(=O)O*)c1 (repeat unit) | 23.50
*CC(*)C(=O)N1CCOCC1 (repeat unit) | 150.00
*c1ccc2c(c1)C(=O)N(c1cc(OCCCCCCCCCCCC)cc(N3C(=O)c4ccc(C(*)(C(F)(F)F)C(F)(F)F)cc4C3=O)c1)C2=O (repeat unit) | 165.00
*/C=C(/*)c1c(C)cc(C(C)(C)C)cc1C (repeat unit) | 200.00
*CC(=O)Nc1ccc(Oc2ccc(C(C)(C)c3ccc(Oc4ccc(NC(=O)CN5C(=O)c6ccc(C(c7ccc8c(c7)C(=O)N(*)C8=O)(C(F)(F)F)C(F)(F)F)cc6C5=O)cc4)cc3)cc2)cc1 (repeat unit) | 224.00
*CC(*)(C)C(=O)OCCCCCCOc1ccc(/C=N/c2ccc(C#N)cc2)cc1 (repeat unit) | 35.00
*c1ccc(Oc2ccc(C(=O)c3cccc(-c4cccc(C(=O)c5ccc(Oc6ccc(-c7nc(-c8cccc(-c9nc(*)c(-c%10ccccc%10)[nH]9)c8)[nH]c7-c7ccccc7)cc6)cc5)c4)c3)cc2)cc1 (repeat unit) | 250.00
*CCCCOC(=O)CCCCCCCCCCCCCCCCCCCCCCCCCCCCCCCCCCC(=O)O* (repeat unit) | -55.00
*CCCCCCCCCCOC(=O)NCc1ccc(CNC(=O)O*)cc1 (repeat unit) | 49.00
